# In patent US20250195521A1 (Revolution Medicines, Inc., priority 2020, published 2025):
# Values joined by “and” are separate entries in the source; they are usually repeats but may differ in a detail not shown here. Identical values can stand only once. Like-named read-outs stand apart in the source and are kept apart here.
# Legend:
# [1] = tested on: NCI-H358 cells (K-Ras G12C); assay: CellTiter-Glo cell viability, NCI-H358; assay type: cell-based, human; settings: K-Ras G12C, 5-day treatment, read-out: H358 Cell Viability IC50
# Summary of the method: (§1)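 Cells seeded, compound dispensed straight into wells, 5-day exposure. Plates brought to room temperature ~30 min, CellTiter-Glo luminescence measured. Normalized to DMSO (%), 4-parameter logistic fit.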
# [2] = tested on: Capan-1 cells (K-Ras G12V); assay: CellTiter-Glo cell viability, Capan-1; assay type: cell-based, human; settings: K-Ras G12V, 5-day treatment, read-out: Capan-1 Cell Viability IC50
# Summary of the method: as §1
# [3] = tested on: K-Ras G12C (NCI-H358 cells); assay: Potency assay: pERK in NCI-H358 cells; assay type: cell-based, human; settings: Homo sapiens; NCI-H358 cells, 4 hours; read-out: pERK EC50 (H358 KRAS G12C)
# Summary of the method: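 Cells plated the day before were exposed for 4 h at 37° C, 5% CO2 to a 10-point, 3-fold DMSO dilution series (10 mM top stock), in duplicate. Phospho-ERK was read by AlphaLISA SureFire Ultra or by In-Cell Western with DRAQ5 DNA stain, and IC50 came from a 4-parameter sigmoidal fit.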
# KRAS G13C = KRAS G13C (Homo sapiens (Human), UniProt P01116+P62937, G13C); assay: Ras-Raf disruption/FRET/MOA assay (BRAF RBD, Cyclophilin A); assay type: biochemical; settings: read-out: KRAS G13C FRET IC50
# Summary of the method: (§2)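 First, 25 μM Cyclophilin A, 12.5 nM His6-Ras-GMPPNP and 50 nM GST-BRAF RBD are mixed with diluted compound at pH 7.3. Next, 3 h at 25° C. Then 10 nM anti-His Eu-W1024 plus 50 nM anti-GST allophycocyanin for 1.5 h before TR-FRET reading.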
# KRAS G12C = KRAS G12C (Homo sapiens (Human), UniProt P01116+P62937, G12C); assay: as above; assay type: biochemical; settings: read-out: KRAS G12C FRET IC50
# Summary of the method: as §2
# KRAS WT = KRAS WT (Homo sapiens (Human), UniProt P01116+P62937); assay: as above; assay type: biochemical; settings: read-out: KRAS WT FRET data IC50
# Summary of the method: as §2
# NRAS Q61K = NRAS Q61K (Homo sapiens (Human), UniProt P01111+P62937, Q61K); assay: as above; assay type: biochemical
# Summary of the method: (§3)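 25 μM tagless Cyclophilin A, 12.5 nM His6-Ras-GMPPNP and 50 nM GST-BRAF RBD in HEPES pH 7.3 buffer with 5 mM MgCl2, with compound (10-point 3-fold series from 30 μM final) for 3 h at 25 °C. Anti-His Eu and anti-GST APC then added for 1.5 h. IC50 from TR-FRET ratio decrease versus DMSO.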
# NRAS G12C = NRAS G12C (Homo sapiens (Human), UniProt P01111+P62937, G12C); assay: as above; assay type: biochemical; settings: read-out: NRAS G12C FRET data IC50
# Summary of the method: as §3
# KRAS G12D = KRAS G12D (Homo sapiens (Human), UniProt P01116+P62937, G12D); assay: as above; assay type: biochemical; settings: read-out: KRAS G12D FRET IC50
# Summary of the method: as §2
# KRAS G13D = KRAS G13D (Homo sapiens (Human), UniProt P01116+P62937, G13D); assay: as above; assay type: biochemical; settings: read-out: KRAS G13D FRET data IC50
# Summary of the method: as §2
# NRAS WT = NRAS WT (Homo sapiens (Human), UniProt P01111+P62937); assay: as above; assay type: biochemical
# Summary of the method: as §3
# KRAS G12V = KRAS G12V (Homo sapiens (Human), UniProt P01116+P62937, G12V); assay: as above; assay type: biochemical; settings: read-out: KRAS G12V FRET IC50
# Summary of the method: as §2
# KRAS G12S = KRAS G12S (Homo sapiens (Human), UniProt P01116+P62937, G12S); assay: as above; assay type: biochemical; settings: read-out: KRAS G12S FRET IC50
# Summary of the method: as §2
# NCI-H358 (K-Ras G12C) = assay: CellTiter-Glo cell viability assay, NCI-H358; assay type: cell-based, human; settings: Homo sapiens, NCI-H358, 120 h, 5-day treatment; read-out: H358 Cell Viability assay data (K-Ras G12C, IC50)
# Summary of the method: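 Cells seeded, compound added directly to plates; day 5: plates to RT ~30 min, CellTiter-Glo luminescence; (sample/avg DMSO)*100; 4-parameter fit.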
# [4] = target: K-Ras G12C(GMP-PNP) binding to BRAF RBD (Homo sapiens (Human), UniProt P01116+P62937, G12C); assay: Disruption of BRAF RBD interaction with K-Ras (FRET / MOA assay), K-Ras G12C; assay type: biochemical; settings: read-out: KRAS G12C FRET IC50
# Summary of the method: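 Compounds promote ternary complex of nucleotide-loaded Ras (here K-Ras G12C·GMP-PNP; other Ras mutants substituted) with cyclophilin A, disrupting BRAF RBD binding. 10-point 3-fold series from 30 μM final, 3 h at 25 °C, then anti-His Eu (10 nM) and anti-GST APC (50 nM) for 1.5 h. TR-FRET ratio decrease versus DMSO gave IC50.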
# NRAS Q61R = NRAS Q61R (Homo sapiens (Human), UniProt P01111+P62937, Q61R); assay: Ras-Raf disruption/FRET/MOA assay (BRAF RBD, Cyclophilin A); assay type: biochemical
# Summary of the method: as §3
# KRAS Q61H = KRAS Q61H (Homo sapiens (Human), UniProt P01116+P62937, Q61H); assay: as above; assay type: biochemical
# Summary of the method: as §2
# Chain of NRAS Q61K (P01111 whole entry Q61K): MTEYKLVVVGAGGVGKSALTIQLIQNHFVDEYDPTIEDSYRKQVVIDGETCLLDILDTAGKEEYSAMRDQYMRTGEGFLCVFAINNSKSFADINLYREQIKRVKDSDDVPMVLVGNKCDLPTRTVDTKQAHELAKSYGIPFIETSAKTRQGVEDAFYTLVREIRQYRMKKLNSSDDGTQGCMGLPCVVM
# Chain of NRAS Q61K (P62937 whole entry): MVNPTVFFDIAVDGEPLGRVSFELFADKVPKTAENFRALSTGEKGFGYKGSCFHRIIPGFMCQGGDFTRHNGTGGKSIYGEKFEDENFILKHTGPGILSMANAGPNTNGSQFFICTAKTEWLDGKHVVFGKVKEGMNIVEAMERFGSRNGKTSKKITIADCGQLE
# Chain of KRAS G12C (P01116-2 other isoform, or with tags, fused parts or gaps G12C): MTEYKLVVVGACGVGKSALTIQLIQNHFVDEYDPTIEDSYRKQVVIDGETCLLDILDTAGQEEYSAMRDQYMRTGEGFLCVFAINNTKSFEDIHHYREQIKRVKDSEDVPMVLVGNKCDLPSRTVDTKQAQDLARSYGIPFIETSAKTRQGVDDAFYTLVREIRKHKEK
# Chain of KRAS G12C (P62937 whole entry): as the sequence (P62937 whole entry) above
# Chain of KRAS Q61H (P01116 other isoform, or with tags, fused parts or gaps Q61H): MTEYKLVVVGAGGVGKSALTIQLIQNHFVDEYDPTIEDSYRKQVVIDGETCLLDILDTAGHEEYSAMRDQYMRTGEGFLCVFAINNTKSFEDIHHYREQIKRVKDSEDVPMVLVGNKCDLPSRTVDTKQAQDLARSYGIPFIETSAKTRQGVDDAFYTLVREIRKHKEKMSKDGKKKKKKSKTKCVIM
# Chain of KRAS Q61H (P62937 whole entry): as the sequence (P62937 whole entry) above
# Chain of KRAS G12V (P01116 other isoform, or with tags, fused parts or gaps G12V): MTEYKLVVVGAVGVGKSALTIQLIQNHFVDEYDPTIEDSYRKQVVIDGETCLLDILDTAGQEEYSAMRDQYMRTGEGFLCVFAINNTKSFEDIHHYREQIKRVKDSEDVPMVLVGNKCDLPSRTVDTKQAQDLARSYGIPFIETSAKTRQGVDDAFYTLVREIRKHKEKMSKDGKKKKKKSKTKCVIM
# Chain of KRAS G12V (P62937 whole entry): as the sequence (P62937 whole entry) above
# Chain of KRAS WT (P01116 other isoform, or with tags, fused parts or gaps): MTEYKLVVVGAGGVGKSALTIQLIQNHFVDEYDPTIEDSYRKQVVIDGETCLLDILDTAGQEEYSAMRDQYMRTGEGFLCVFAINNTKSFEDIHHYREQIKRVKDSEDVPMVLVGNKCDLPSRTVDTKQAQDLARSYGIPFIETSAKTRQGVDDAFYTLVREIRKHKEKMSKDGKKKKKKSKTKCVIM
# Chain of KRAS WT (P62937 whole entry): as the sequence (P62937 whole entry) above
# Chain of KRAS G13D (P01116 other isoform, or with tags, fused parts or gaps G13D): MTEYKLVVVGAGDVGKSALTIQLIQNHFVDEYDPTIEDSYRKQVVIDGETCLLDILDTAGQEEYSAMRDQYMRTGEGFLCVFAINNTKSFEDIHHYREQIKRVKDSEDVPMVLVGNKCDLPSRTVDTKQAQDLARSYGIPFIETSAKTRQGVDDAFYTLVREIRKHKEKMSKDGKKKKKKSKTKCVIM
# Chain of KRAS G13D (P62937 whole entry): as the sequence (P62937 whole entry) above
# Chain of NRAS Q61R (P01111 whole entry Q61R): as the sequence (P01111 whole entry Q61K) above, with K61R counted along it
# Chain of NRAS Q61R (P62937 whole entry): as the sequence (P62937 whole entry) above
# Chain of NRAS WT (P01111 whole entry): as the sequence (P01111 whole entry Q61K) above, with K61Q counted along it
# Chain of NRAS WT (P62937 whole entry): as the sequence (P62937 whole entry) above
# Chain of NRAS G12C (P01111 whole entry G12C): as the sequence (P01111 whole entry Q61K) above, with G12C, K61Q counted along it
# Chain of NRAS G12C (P62937 whole entry): as the sequence (P62937 whole entry) above
# Chain of KRAS G12D (P01116 other isoform, or with tags, fused parts or gaps G12D): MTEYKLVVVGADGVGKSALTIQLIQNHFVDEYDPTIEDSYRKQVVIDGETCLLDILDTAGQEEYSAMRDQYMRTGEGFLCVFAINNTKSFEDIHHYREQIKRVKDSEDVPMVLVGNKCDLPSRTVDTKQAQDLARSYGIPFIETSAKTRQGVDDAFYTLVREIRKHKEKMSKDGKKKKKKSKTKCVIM
# Chain of KRAS G12D (P62937 whole entry): as the sequence (P62937 whole entry) above
# Chain of KRAS G12S (P01116 other isoform, or with tags, fused parts or gaps G12S): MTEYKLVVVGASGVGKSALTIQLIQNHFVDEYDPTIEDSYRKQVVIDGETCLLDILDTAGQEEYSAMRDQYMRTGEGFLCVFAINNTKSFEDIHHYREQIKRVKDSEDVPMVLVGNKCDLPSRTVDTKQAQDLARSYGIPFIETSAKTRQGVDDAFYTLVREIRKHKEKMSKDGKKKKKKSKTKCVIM
# Chain of KRAS G12S (P62937 whole entry): as the sequence (P62937 whole entry) above
# Chain of KRAS G13C (P01116 other isoform, or with tags, fused parts or gaps G13C): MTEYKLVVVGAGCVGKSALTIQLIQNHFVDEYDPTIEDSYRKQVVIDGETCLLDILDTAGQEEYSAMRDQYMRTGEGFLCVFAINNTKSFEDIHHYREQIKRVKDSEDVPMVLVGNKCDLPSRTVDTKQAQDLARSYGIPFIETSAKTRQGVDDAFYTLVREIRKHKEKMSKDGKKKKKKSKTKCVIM
# Chain of KRAS G13C (P62937 whole entry): as the sequence (P62937 whole entry) above
# Chain of K-Ras G12C(GMP-PNP) binding to BRAF RBD (P01116 other isoform, or with tags, fused parts or gaps G12C): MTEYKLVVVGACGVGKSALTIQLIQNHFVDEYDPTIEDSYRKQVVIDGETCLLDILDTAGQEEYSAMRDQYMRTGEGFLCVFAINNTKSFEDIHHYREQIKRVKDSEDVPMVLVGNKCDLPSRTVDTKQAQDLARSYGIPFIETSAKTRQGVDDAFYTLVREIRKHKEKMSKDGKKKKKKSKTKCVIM
# Chain of K-Ras G12C(GMP-PNP) binding to BRAF RBD (P62937 whole entry): as the sequence (P62937 whole entry) above
IC50 (KRAS Q61H) [nM],IC50 [1] [nM],Structure (SMILES),"IC50 ([1]; Homo sapiens, NCI-H358, 120 h) [nM]","IC50 ([2]; Homo sapiens, CAPAN-1, 120 h) [µM]",EC50 [3] [µM],IC50 (KRAS G13C) [nM],IC50 (KRAS G12C),IC50 (KRAS WT),IC50 (NRAS Q61K) [nM],IC50 (NRAS G12C) [nM],IC50 (KRAS G12D),IC50 (KRAS G13D) [µM],IC50 (NRAS WT),IC50 (KRAS G12V) [µM],IC50 (KRAS G12S) [µM],IC50 (NCI-H358 (K-Ras G12C)) [nM],IC50 [4] [nM],IC50 (NRAS Q61R),IC50 [2] [µM]
,,CO[C@@H](C)c1ncccc1-c1c2c3cc(ccc3n1C)-c1cc(O)cc(c1)C[C@H](NC(=O)[C@H](C(C)C)N(C)C(C)=O)C(=O)N1CCC[C@H](N1)C(=O)OCC(C)(C)C2 [Compound A104],1000 to 10000,> 10,< 5,1000 to 10000,1000 to 10000 nM and > 10000 nM,> 10000 nM,1000 to 10000,> 10000,> 10 µM,> 10,1000 to 10000 nM,> 10,> 10,,,,
,,CCn1c(-c2cccnc2[C@H](C)OC)c2c3cc(ccc31)-c1cc(O)cc(c1)C[C@H](NC(=O)[C@H](C(C)C)N(C)C(=O)C1(C(=O)O)CC1)C(=O)N1CCC[C@H](N1)C(=O)OCC(C)(C)C2 [Compound A150],,> 10,,1000 to 10000,1000 to 10000 nM,1000 to 10000 nM,1000 to 10000,1000 to 10000,> 10 µM,> 10,1000 to 10000 nM,> 10,> 10,< 10,10 to 100,,
100 to 1000,,CCn1c(-c2cccnc2[C@H](C)OC)c2c3cc(ccc31)-c1cc(O)cc(c1)C[C@H](NC(=O)[C@@H]1[C@@H](C)CCN1C(C)=O)C(=O)N1CCC[C@H](N1)C(=O)OCC(C)(C)C2 [Compound A208],,> 10,,100 to 1000,100 to 1000 nM,100 to 1000 nM,100 to 1000,1000 to 10000,1 to 10 µM,1 to 10,100 to 1000 nM,1 to 10,1 to 10,,,1 to 10 µM,
100 to 1000,100 to 1000,CCn1c(-c2cccnc2[C@H](C)OC)c2c3cc(ccc31)-c1csc(n1)C[C@H](NC(=O)[C@H](C(C)C)N(C)C(=O)N1CC(OC)C1)C(=O)N1CCC[C@H](N1)C(=O)OCC(C)(C)C2 [Compound A354],,,,100 to 1000,100 to 1000 nM,,100 to 1000,100 to 1000,1 to 10 µM,1 to 10,,0.1 to 1,0.1 to 1,,,,0.1 to 1

Structure (SMILES),IC50 (KRAS Q61H) [nM],IC50 [1] [nM],"IC50 ([1]; Homo sapiens, NCI-H358, 120 h) [nM]","IC50 ([2]; Homo sapiens, CAPAN-1, 120 h) [µM]",EC50 [3] [µM],IC50 (KRAS G13C) [nM],IC50 (KRAS G12C),IC50 (KRAS WT),IC50 (NRAS Q61K) [nM],IC50 (NRAS G12C) [nM],IC50 (KRAS G12D),IC50 (KRAS G13D) [µM],IC50 (NRAS WT),IC50 (KRAS G12V) [µM],IC50 (KRAS G12S) [µM],IC50 (NCI-H358 (K-Ras G12C)) [nM],IC50 [4] [nM],IC50 (NRAS Q61R),IC50 [2] [µM]
CCn1c(-c2cccnc2[C@H](C)OC)c2c3cc(ccc31)-c1cc(O)cc(c1)C[C@H](NC(=O)CC(C)c1ccncc1)C(=O)N1CCC[C@H](N1)C(=O)OCC(C)(C)C2 (stereo partly drawn) [Compound A178],100 to 1000,,,> 10,,100 to 1000,100 to 1000 nM and 1000 to 10000 nM,100 to 1000 nM and 1000 to 10000 nM,1000 to 10000,1000 to 10000,1 to 10 µM and > 10 µM,1 to 10,100 to 1000 nM and 1000 to 10000 nM,1 to 10,1 to 10,,,1 to 10 µM and > 10 µM,
